What was measured:
Test in all cases: relative viability (nuclei count vs DMSO), 5 days (fraction); higher = more cells survive
Lenalidomide = compound: Nc1cccc2c1CN(C1CCC(=O)NC1=O)C2=O [Lenalidomide]
Outline: (§1)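 Following overnight incubation at 37 °C, lung cancer cell lines in 1536-well plates were pinned with five library-drug doses (not always all listed) in √10 steps on vehicle-anchored plates. The cells then spent 5 days without medium change before a combined fix, permeabilisation and Hoechst stain, 4× imaging and MetaXpress nuclear counts. Viability is the treated-to-vehicle ratio of nuclei, taken as the median across plates. Only plates with control CV below 25% and at least one doubling passed.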

Saracatinib = compound: CN1CCN(CCOc2cc(OC3CCOCC3)c3c(Nc4c(Cl)ccc5c4OCO5)ncnc3c2)CC1 [Saracatinib]
Outline: as §1

MIM1 = compound: CC1=CSC(=NC2CCCCC2)N1/N=C/C3=C(C(=C(C=C3)O)O)O [MIM1]
Outline: as §1

Luminespib = compound: CCNC(=O)c1noc(-c2cc(C(C)C)c(O)cc2O)c1-c1ccc(CN2CCOCC2)cc1 [Luminespib]
Outline: as §1

Nilotinib = compound: Cc1cn(-c2cc(NC(=O)c3ccc(C)c(Nc4nccc(-c5cccnc5)n4)c3)cc(C(F)(F)F)c2)cn1 [Nilotinib]
Outline: as §1

Row | Cell Line | relative viability (Lenalidomide; 0.253 µM) | relative viability (Lenalidomide; 0.8 µM) | relative viability (Lenalidomide; 2.53 µM) | relative viability (Lenalidomide; 8 µM) | relative viability (Saracatinib; 0.02 µM) | relative viability (Saracatinib; 0.2 µM) | relative viability (Saracatinib; 0.6325 µM) | relative viability (Saracatinib; 2 µM) | relative viability (MIM1; 0.2 µM) | relative viability (MIM1; 0.6325 µM) | relative viability (MIM1; 2 µM) | relative viability (MIM1; 6.325 µM) | relative viability (MIM1; 20 µM) | relative viability (Luminespib; 0.002 µM) | relative viability (Luminespib; 0.006325 µM) | relative viability (Luminespib; 0.01 µM, anchor plate) | relative viability (Luminespib; 0.02 µM) | relative viability (Luminespib; 0.06325 µM) | relative viability (Luminespib; 0.2 µM) | relative viability (Nilotinib; 0.001 µM) | relative viability (Nilotinib; 0.003162 µM) | relative viability (Nilotinib; 0.01 µM) | relative viability (Nilotinib; 0.1 µM) | relative viability (Nilotinib; 0.03162 µM)
1 | NCI-H1792 | 1.09 | 0.715 | 1.35 | 0.419 | 1.09 | 0.726 | 1.03 | 0.776 | 0.966 | 0.79 | 0.728 | 0.76 | 0.659 | 0.926 | 0.71 | 0.52 | 0.348 | 0.167 | 0.107 | 0.706 | 0.817 | 1.07 | 0.831 | –
2 | NCI-H1793 | 0.962 | – | 1.08 | 0.37 | 0.909 | 0.674 | 1.01 | 0.666 | 0.874 | – | 0.838 | 0.809 | 0.858 | 0.775 | 0.84 | 0.192 | 0.248 | 0.137 | 0.15 | 0.91 | 1.22 | 1.28 | 0.204 | 0.623
3 | NCI-H1915 | 0.971 | 0.836 | 1.08 | 0.96 | 0.993 | 0.91 | 1.02 | 0.911 | 1.01 | 0.702 | 0.922 | 0.477 | 0.398 | 0.86 | 0.878 | 0.795 | 0.878 | 0.859 | 0.119 | 0.916 | 1.07 | 1.11 | 0.432 | 0.955
4 | NCI-H1944 | 0.989 | 0.743 | 0.973 | 0.713 | 0.996 | – | 0.915 | 0.555 | 0.982 | 0.864 | 0.63 | 0.568 | 0.477 | 0.936 | 0.954 | 0.749 | 0.595 | 0.721 | 0.333 | 1 | 1.11 | 1.21 | 0.988 | 0.924
5 | NCI-H1975 | 1.03 | 0.821 | 1.1 | 0.889 | 1.04 | 0.952 | 1.02 | 0.698 | 0.959 | 0.968 | 0.84 | 0.609 | 0.424 | 0.981 | 0.91 | 0.235 | 0.507 | 0.158 | 0.147 | 0.871 | 1 | 0.981 | 0.724 | 0.784
6 | NCI-H1993 | 0.941 | 0.784 | 1.05 | 0.642 | 0.951 | 0.8 | 0.457 | 0.648 | 0.929 | 0.944 | 0.907 | 0.678 | 0.561 | 0.995 | 0.898 | 0.875 | 0.584 | 0.565 | 0.415 | 0.912 | 0.95 | 0.899 | 0.613 | 0.901
7 | NCI-H2009 | 0.994 | 0.986 | 1.13 | 1.01 | 1.04 | 0.906 | 0.997 | 0.782 | 0.996 | 0.965 | 1.04 | 0.716 | 0.29 | 1.03 | 0.923 | 1.01 | 0.903 | 0.0828 | 0.0845 | 0.9 | 1.05 | 1.18 | 0.588 | 1
8 | NCI-H2023 | 0.928 | 1.04 | 1.13 | 0.968 | 1.04 | 0.663 | 0.905 | 0.821 | 0.896 | 0.954 | 0.847 | 0.43 | 0.0909 | 0.903 | 0.999 | 0.769 | 0.5 | 0.062 | 0.058 | 0.916 | 0.9 | 1.31 | 0.537 | 0.83
9 | NCI-H2085 | 0.975 | 0.811 | 1.06 | 0.944 | 1.02 | 0.893 | 1.09 | 0.967 | 0.995 | 0.974 | 1.02 | 0.817 | 0.947 | 0.964 | 0.931 | 0.466 | 0.779 | 0.576 | 0.384 | 1.03 | 1.06 | 1.12 | 0.754 | 0.91
10 | NCI-H2087 | 1.03 | 0.892 | 1.14 | 0.888 | 1.11 | 0.873 | 1.11 | 1.01 | 1.03 | 0.943 | 1.03 | 0.696 | 0.583 | 1.07 | 0.894 | 0.192 | 0.625 | 0.143 | 0.122 | 0.813 | 0.981 | 0.992 | 0.299 | 0.443
11 | NCI-H2126 | 1.01 | 0.859 | 1.08 | 0.788 | 1.07 | 0.965 | 0.931 | 0.816 | 1.04 | 0.91 | 1.04 | 0.897 | 0.688 | 0.967 | 0.962 | 0.919 | 0.646 | 0.756 | 0.26 | 0.995 | 1.09 | 1.03 | 0.601 | 0.937
12 | NCI-H2170 | 1 | 0.979 | 1.01 | 0.782 | 1 | 0.926 | 0.986 | 0.689 | 0.943 | 0.907 | 1.02 | 0.603 | 0.28 | 0.974 | 0.945 | 0.732 | 0.586 | 0.793 | 0.179 | 0.864 | 1.16 | 1.2 | 0.952 | 0.875
13 | NCI-H2228 | 0.795 | 1.07 | 1.22 | 0.89 | 1.04 | 0.825 | 0.9 | 0.841 | 0.999 | 0.978 | 1.31 | 0.517 | 0.172 | 1.23 | 0.87 | 0.148 | 0.451 | 0.172 | 0.157 | 0.773 | 1.5 | 1.36 | 0.511 | 0.698
14 | NCI-H2342 | 1.01 | 0.952 | 1.04 | 0.733 | 1.07 | 0.947 | 1.14 | 0.945 | 0.944 | 1 | 1.01 | 0.803 | 1.03 | 0.974 | 0.955 | 0.76 | 0.619 | 0.774 | 0.592 | 0.868 | 0.928 | 1.02 | 1.02 | 0.831
15 | NCI-H2347 | 1.03 | 1.13 | 1.17 | 0.9 | 0.983 | 0.903 | 1.09 | 1.06 | 1.1 | 0.972 | 1.09 | 0.757 | 0.478 | 1.02 | 0.721 | 0.421 | 0.911 | 0.722 | 0.318 | 0.97 | 1.14 | 1.13 | 0.793 | 0.841
16 | NCI-H2405 | 0.969 | 0.909 | 1.01 | 0.831 | 0.985 | 0.861 | 0.775 | 0.52 | 1.02 | 1.08 | 1.05 | 0.742 | 0.573 | 1.07 | 0.837 | 0.686 | 0.831 | 0.274 | 0.212 | 0.994 | 0.975 | 0.966 | 0.551 | 0.821
17 | NCI-H3122 | 0.999 | 1.04 | 1.01 | 1.06 | 0.969 | 0.717 | 0.845 | 0.803 | 0.979 | 1.04 | 1.01 | 0.551 | 0.257 | 1.05 | 0.958 | 0.0888 | 0.627 | 0.507 | 0.117 | 1.03 | 1.21 | 1.23 | 0.956 | 0.971
18 | PC-3 [JPC-3] | 1.03 | 0.899 | 1.13 | 1.08 | 1.02 | 0.945 | 0.766 | 0.541 | 1.05 | 1.04 | 0.988 | 0.874 | 0.439 | 1.01 | 0.915 | 0.669 | 0.982 | 0.961 | 0.281 | 1.03 | 1.07 | 1.11 | 0.656 | 1
19 | PC-14 | 1.01 | 1.02 | 1.12 | 1.1 | 1.01 | 0.675 | 0.453 | 0.234 | 0.959 | 1.01 | 0.836 | 0.807 | 0.325 | 1.02 | 0.933 | 0.164 | 0.572 | 0.0917 | 0.0993 | 0.944 | 1.14 | 1.26 | 0.643 | 0.879
20 | RERF-LC-KJ | 1.06 | 0.947 | 1.08 | 0.943 | 1.1 | 0.979 | 1.02 | 0.981 | 0.932 | 0.977 | 0.823 | 0.574 | 0.271 | 0.979 | 0.994 | 1.24 | 0.844 | 0.314 | 0.234 | 0.932 | 1.1 | 1.12 | 0.81 | 0.868
21 | SK-LU-1 | 0.963 | 1.03 | 1.23 | 0.903 | 1.03 | 0.802 | 0.707 | 0.53 | 1.05 | 1.08 | 1.12 | 0.934 | 0.617 | 1.09 | 0.777 | 0.202 | 0.644 | 0.186 | 0.192 | 0.932 | 0.927 | 1.24 | 0.894 | 0.718
22 | SK-MES-1 | 0.988 | 0.995 | 1.06 | 0.936 | 1 | 0.894 | 0.817 | 0.579 | 1.02 | 0.986 | 0.996 | 0.766 | 0.507 | 0.986 | 0.931 | 0.831 | 0.903 | 0.171 | 0.145 | 0.994 | 1.13 | 1.26 | 0.877 | 0.924
